Measurements from publication PMC10644720 (Frontiers in Pharmacology, 2023).

What was measured:
human washed platelets [1] = experiment: Platelet superoxide anion and H2O2 release (DHE, Amplex Red); type: cell-based; settings: convulxin 5 ng/mL; luteolin 25 μM
Protocol: A ROS probe via a fluorescent enzyme marker was added. O2 ^− and H2O2 were measured using 2 μM Amplex Red (Cat No. ST010; Beyotime Institute of Biotechnology, Shanghai, China) or 2 μM Dihydroethidium (DHE, Cat No. S0063; Beyotime Institute of Biotechnology, Shanghai, China). O2 ^− and H2O2 were analyzed using a Fluoroskan Ascent fluorometer (Thermo Fisher, Waltham, Massachusetts, United States).

human washed platelets [2] = experiment: MDA, SOD and GPx activity in platelet lysate supernatant; type: cell-based; settings: convulxin- and collagen-induced
Protocol: MDA, SOD, GPx, and NADPH oxidase activity were measured as previously described ([Krotz et al., 2002]; [Paul et al., 2019]; [Pan et al., 2021]). After incubation and activation, the reaction was stopped by adding 10 mM EGTA. The platelets were pelleted by centrifugation at 20,000 × g for 10 min at 4°C and resuspended in Tyrode’s buffer with 0.1% phosphatase and protease inhibitors (Cat No. 04906837001, Roche Applied Science, Penzberg, Germany; Cat No. P-8340, Sigma, St. Louis, MO, United States). The platelets were disrupted by passing them 10 times through a 29-gauge needle, followed by centrifugation at 2000 × g for 10 min at 4°C to separate the supernatant and precipitate. The detection of MDA, SOD, and GPx in the supernatant was performed according to the kit’s instructions for SOD (Cat No. BC0170, Solarbio Life Science, Beijing, China), MDA (Cat No. S0131S, Beyotime Institute of Biotechnology, Shanghai, China) and GPx (Cat No. S0056, Beyotime Institute of Biotechnology, Shanghai, China). In order to determine NADPH oxidase (NOX) activity, platelet lysate (12.5 μg) was incubated with 10 µM lucigenin and 0.5 mM NADPH at 37°C in the dark. The absorbance values were detected at 450 nm using a spectrophotometer Multiskan FC (ThermoFisher Scientific Inc., Waltham, MA, United States). Protein content was determined by the Bradford method.

human washed platelets [3] = experiment: Platelet-collagen static adhesion assay; type: cell-based
Protocol: (§1) As previously reported ([Banfi et al., 2022]), 50 μg/mL collagen and 25 μg/mL fibrinogen (Cat No. F3879-100 MG; Sigma-Aldrich, St. Louis, MO, United States) were used to coat coverslips overnight at 4°C. […] The coated slides were washed three times with PBS and blocked with 1% BSA (prepared in PBS) for 1 h at room temperature. The blocking solution was removed, and WPs were added for adhesion experiments. The WPs were allowed to adhere to the slides for 15–60 min at 37°C. The unadhered platelets were removed by PBS. The platelets were fixed with 2% paraformaldehyde solution for 15 min, broken using 1% Triton-100 for 5 min, and stained with phalloidin (1:1,000, Cat No.17466-45-4, Sigma-Aldrich) for 30 min away from light at room temperature. The platelet morphology was observed using an Olympus ix73 microscope (Olympus Corp., Shinjuku, Japan) and photographed. The number of platelet adhesions and spreading area were analyzed and calculated using ImageJ software.

human washed platelets [4] = experiment: Platelet-fibrinogen spreading assay; type: cell-based; settings: 25 μg/mL fibrinogen-coated slides
Protocol: as §1

[5] = system: mesenteric artery thrombosis; experiment: Ferric chloride-induced mesenteric thrombosis in mice; type: in vivo, C57BL/6 mice; settings: luteolin 35 μM/kg or aspirin 0.5 mM/kg i.p., 30 min before FeCl3
Protocol: A method reported in the literature was used to observe mesenteric artery thrombosis in mice ([Bonnard and […], 2015]). […] The mice were anesthetized by an intraperitoneal injection of pentobarbital (45 mg/kg). They were given an intraperitoneal injection of DMSO, luteolin, or aspirin. They were also given an orbital vein injection of 5 μg/kg rhodamine (Cat No. 83697-250 MG; Sigma-Aldrich, St. Louis, MO, United States) ([Bonnard and […], 2015]), respectively. The mesenteric vessels were exposed by opening the abdominal cavity, and small mesenteric arteries with a diameter of approximately 150-250 μm were selected under the microscope. […] During thrombosis, images were taken every 1 min for the first 10 min and every 5 min after 10 min using an MSHOT MD50 camera (Micro Shot Technology Ltd., Guangzhou, China) and an Olympus ix73 microscope (Olympus Corp., Shinjuku, Japan). […] The size of the thrombus formation was calculated using ImageJ software.

[6] = Luteolin in vivo toxicity experiments (15 days i.p.); parameters: species or system C57BL/6 mice
Protocol: Blood was collected from the orbits every 3 days for blood tests. On the second day, after 15 days of intraperitoneal administration, pentobarbital (45 mg/kg) was injected intraperitoneally for anesthesia, and blood was sampled from the eyes. Whole blood was left for 30–60 min, and the supernatant was centrifuged at 3,000 rpm for serum liver and kidney function testing using Unicel DxC600 (Beckman Coulter, Inc. Brea, California, US). Finally, the mice were sacrificed by cervical dislocation, and the sternum was fixed in 4% paraformaldehyde. […]

[7] = parameters: method as in Aziz et al., 2018; settings: intraperitoneal injection; ref Aziz et al., 2018; cited from earlier work
[8] = parameters: method as in Cheurfa et al., 2019; settings: diet-induced obese mice; 200 mg/kg/d; ref Cheurfa et al., 2019; cited from earlier work
coagulation factor X = system: coagulation factor X; parameters: method as in Choi et al. (2015); settings: ref Choi et al. (2015); cited from earlier work
carotid thrombosis = system: carotid thrombosis; parameters: method as in Choi et al. (2015); settings: mice; ref Choi et al. (2015); cited from earlier work
[9] = luteolin 35 μM/kg i.p. daily for 15 days
[10] = luteolin 35 μM/kg i.p. daily, 15 days, mean ± SEM

With `O=c1cc(-c2ccc(O)c(O)c2)oc2cc(O)cc(O)c12` [Luteolin] the “platelet hydrogen peroxide release” value (human washed platelets [1]) was “inhibited”, the “platelet superoxide anion release” value (human washed platelets [1]) was “inhibited” and the GPx activity (human washed platelets [2]) was “promoted”. For the same molecule, the MDA activity (human washed platelets [2]) was “inhibited”, the SOD activity (human washed platelets [2]) was “promoted” and the “adherent area vs vehicle” value (human washed platelets [3]; luteolin 25 µM, at 15, 30, 45, and 60 min) was “decreased”. The “surface per platelet vs vehicle” value (human washed platelets [3]; luteolin 25 µM, at 15, 45, and 60 min) was “decreased”, the “surface per platelet vs vehicle” value (human washed platelets [3]; luteolin 2.5 and 10 µM, at 15 and 45 min) was “decreased” and the “adherent area vs vehicle” value (human washed platelets [3]; luteolin 2.5 and 10 µM, at 60 min) was “slightly decreased”. For the same molecule, the “platelet adherence (number of adherent platelets) on collagen vs vehicle” value (human washed platelets [3]; luteolin 10 and 25 µM, at 45 and 60 min) was “significantly decreased”, the “platelet spreading on fibrinogen” value (human washed platelets [4]) was “inhibited” and the “time of clot obstruction of blood vessels” value [5] was “significantly prolong”. The “time of initial thrombus formation” value [5] was “Neither the 0.5 mM/kg aspirin group or 35 μM/kg luteolin group prolonged”, the “liver and kidney functions” value ([6]; luteolin 35 μM/kg for 15 days) was “normal” and the “mean platelet volume vs DMSO” value [6, 9] was “no significant differences”. For the same molecule, the “megakaryocyte counts in bone marrow vs DMSO” value [6, 9] was “no significant differences”, the “peripheral platelet count vs DMSO” value [6, 9] was “no significant differences” and the Alanine aminotransferase [6, 10] was 66.21 ± 5.35 U/L. The Alkaline phosphatase [6, 10] was 75.00 ± 7.34 U/L, the Aspartate aminotransferase [6, 10] was 147.20 ± 7.03 U/L and the Blood urea nitrogen [6, 10] was 10.14 ± 0.40 mmol/L. The Creatinine [6, 10] was 17.22 ± 2.61 µmol/L, the Granulocyte % [6, 10] was 25.22 ± 0.74% and the Granulocytes [6, 10] was 0.36 ± 0.03 ×10^9/L. For the same molecule, the Lymphocyte % [6, 10] was 57.39 ± 1.59%, the Lymphocytes [6, 10] was 0.80 ± 0.04 ×10^9/L and the Monocyte % [6, 10] was 17.39 ± 1.56%. For the same molecule, the Monocytes [6, 10] was 0.25 ± 0.04 ×10^9/L, the Red blood cells [6, 10] was 0.65 ± 0.03 ×10^12/L and the Total bilirubin [6, 10] was 5.24 ± 0.49 µmol/L. For the same molecule, the White blood cells [6, 10] was 1.35 ± 0.10 ×10^9/L, the γ-glutamyl transferase [6, 10] was 6.20 ± 1.24 U/L and the “toxic effects in C57BL/6 mice” value ([6]; mouse, in vivo) was “no significant toxic effects”. For the same molecule, the LD50 [7] was 180 mg/kg, the low-density lipoprotein content [8] was “significantly reduced” and the “coagulation factor X activity” value (coagulation factor X) was “effectively inhibits”. For the same molecule, the FeCl3-induced carotid thrombosis (carotid thrombosis) was “significantly inhibits”.
